Measurements: patent US10231992B2, “Antioxidant composition” (priority 2010, dated 2019)

Key:
[1] = system: human fibroblasts; test: MTT cytotoxicity and proliferation assay, limit concentrations of NAC and turmeric; assay type: cell-based
Procedure: The proliferation assay was carried out using the MTT colorimetric assay (Roche 11465007001). MTT is a yellow tetrazolium salt which forms formazan crystals in active cells. The formazan crystals are solubilized and the resulting color is quantified by means of spectrophotometry at 550 nm. […] The cells were maintained at 37° C. in an incubation stove. The following day, the treatments of NAC and Turmeric were added to the cell culture using a volume of 200 μL per well. The cell culture was left to incubate for 24, 48 and 72 hours. After each incubation time, 20 μL of MTT (a final concentration of 0.5 mg/mL) were added to each well. The plate was maintained for 4 hours in the incubation stove in order to allow the formation of formazan crystals. Subsequently, 100 μL of solubilizer was added to each well and the plate was left in the incubation stove until the following day.

[2] = system: reactive oxygen metabolites (ROMs) in human fibroblasts; test: Intracellular ROM quantification with 2',7'-dichlorofluorescein diacetate probe in oxidized fibroblasts; assay type: cell-based; settings: 1 mM H2O2; for F.U. (fluorescence units) / % decrease of ROS: 1% LBG, 5 mM NAC, 5 μM Turmeric; for F.U. (fluorescence units): fluorescence at 538 nm, 20 minutes after the start of the oxidation; for % decrease of ROS: with respect to the oxidized control
Procedure: To quantify the ROM-decreasing or antioxidant capacity of LBG, NAC and turmeric, the production of the ROMs generated upon oxidizing a culture of fibroblasts with a high concentration of hydrogen peroxide was measured.
The intracellular ROMs were quantified by means of the labeling thereof with the fluorescent probe 2′,7′-dichlorofluorescein diacetate (Molecular Probes D399). This probe is capable of emitting fluorescence at 538 nm when it is oxidized with reactive oxygen metabolites. The cell oxidation was carried out with 1 mM hydrogen peroxide.
The day before the assay, the fibroblasts were seeded in a 96-well plate at a density of 11500 cells per well. All the assays were performed in triplicate.
The treatments were prepared on the day of the experiment and the hydrogen peroxide was added just before the assay.
A solution of locust bean gum of 1% in distilled water was prepared and heated above 100° C. until completing dissolution of the gum.
The solution was then centrifuged for 20 minutes at 4000 rpm to remove the impurities from the mixture. The solution of the locust bean gum was lyophilized. The lyophilisate was dissolved in cell growth medium (DMEM+10% FBS) at a concentration of 1%.
Before adding the treatments and the hydrogen peroxide, the cells were labeled with the fluorescent probe at a concentration of 50 μM for 30 minutes in darkness.
The NAC and Turmeric treatments and the hydrogen peroxide were prepared just before starting the assay. To prepare the turmeric stock, it is necessary to know the purity of the Turmeric batch available and readjust the calculation to add the necessary concentration.
After labeling the cells, the antioxidant treatments and the hydrogen peroxide were added.
The fluorescence emitted at 538 nm by the probe was collected 20 minutes after the start of the oxidation.
However, in this case the decrease in intracellular ROM levels was taken as a reference with respect to the oxidized control.

CC(=O)N[C@@H](CS)C(=O)O [NAC, N-acetyl cysteine, reference compound]
IC50 (concentration causing a 50% cell decrease with respect to the control) ([1]; NAC studied from 0.5 mM to 20 mM, 72 hours): none of the concentrations studied reached IC50 | proliferative rate in the fibroblasts ([1]; concentrations of 1 and 5 mM): improvement of the proliferative rate | cell proliferation with respect to the control ([1]; concentrations of 10 and 20 mM): progressively reduced cell proliferation | maximum limit of concentration ([1]; toxicity limit from MTT assay): 10 mM | intracellular ROM levels [2]: significant decrease of the intracellular ROM levels | F.U. (fluorescence units) [2]: 1.82 | % decrease of ROS [2]: 85%

COc1cc(/C=C/C(=O)/C=C(O)/C=C/c2ccc(O)c(OC)c2)ccc1O [Turmeric, curcumin]
IC50 ([1]; Homo sapiens, Fibroblast, 72 h, read-out: IC50 (concentration causing a 50% cell decrease with respect to the control)): 7.5 µM | toxicity ([1]; concentration of 10 μM): exceeds the limit at 72 hours | toxicity ([1]; concentrations of 1 and 5 μM): no toxic effects were observed | toxicity ([1]; concentrations of 20 and 50 μM): toxicity from the first 24 hours, exceeding the IC50 limit | maximum limit of use in the mixture ([1]; toxicity limit from MTT assay): 7.5 µM | intracellular ROM levels [2]: significant decrease of the intracellular ROM levels | F.U. (fluorescence units) [2]: 2.31 | % decrease of ROS [2]: 81%
